Source: BindingDB's records for patent US20160046618 (Amgen, 2016)

How the values were obtained:
[1] = target: Cathepsin D (Homo sapiens, UniProt P07339); assay: In Vitro Enzymatic Cathepsin D (Cat D) FRET Assay
Experimental: Recombinant Cat D was expressed in CHO cells. The assay buffer for CathepsinD is 0.05 M citrate pH 3.5, 10% DMSO final, 5 mM CHAPS. […] The assays are effectively started by the addition of different FRET substrates (20 nM for Cat D) and the combination is incubated for one hour. The FRET assay is terminated with by addition of Tris buffer, which raises the pH to neutrality, and the fluorescence is determined. The FRET substrate is a peptide with commercially available fluorophore and quencher, on opposite sides of the BACE cleavage site. […] Proteolytic cleavage of the FRET substrate releases quenching of fluorescence (Cat D excitation 500 nm and emission 580 nm).

[2] = target: Beta-secretase 1 (Homo sapiens, UniProt P56817); assay: In Vitro Enzymatic BACE1 and BACE2 FRET Assays
Sequence of Beta-secretase 1 (P56817 whole entry): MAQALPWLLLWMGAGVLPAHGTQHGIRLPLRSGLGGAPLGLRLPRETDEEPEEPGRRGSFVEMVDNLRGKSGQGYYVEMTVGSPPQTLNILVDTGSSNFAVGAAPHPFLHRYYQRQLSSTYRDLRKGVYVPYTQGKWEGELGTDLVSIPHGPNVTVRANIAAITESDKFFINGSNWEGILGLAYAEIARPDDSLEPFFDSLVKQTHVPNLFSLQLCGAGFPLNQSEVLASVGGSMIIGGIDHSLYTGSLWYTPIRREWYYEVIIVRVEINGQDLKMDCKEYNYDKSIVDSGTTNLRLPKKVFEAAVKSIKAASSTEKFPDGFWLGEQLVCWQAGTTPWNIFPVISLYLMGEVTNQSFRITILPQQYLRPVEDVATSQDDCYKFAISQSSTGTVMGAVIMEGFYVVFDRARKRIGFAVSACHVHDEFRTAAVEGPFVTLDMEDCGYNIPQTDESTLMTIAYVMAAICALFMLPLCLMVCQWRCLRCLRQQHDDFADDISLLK
Experimental: (§1) The cDNAs for both human recombinant BACE1 and BACE2 with C-terminal 6-His Tags were cloned into transient protein expression vectors, which were subsequently transfected into mammalian cell lines. These recombinant proteins were further purified using Ni-NTA affinity chromatography (Qiagen). The assay buffer used in these screens is 0.05 M acetate, pH 4.5, 8% DMSO final, 100 uM genapol (which is a nonionic detergent, below its Critical Micelle Concentration). […] This assay is effectively started by the addition of FRET substrate (50 nM) and the combination is incubated for one hour. The FRET assay is terminated by addition of Tris buffer, which raises the pH to neutrality, and the fluorescence is determined. The FRET substrate is a peptide with commercially available fluorophore and quencher, on opposite sides of the BACE cleavage site.

[3] = target: T1, Beta-secretase 2 (Homo sapiens, UniProt Q9Y5Z0); assay: In Vitro Enzymatic BACE1 and BACE2 FRET Assays
T1 sequence (Q9Y5Z0 whole entry): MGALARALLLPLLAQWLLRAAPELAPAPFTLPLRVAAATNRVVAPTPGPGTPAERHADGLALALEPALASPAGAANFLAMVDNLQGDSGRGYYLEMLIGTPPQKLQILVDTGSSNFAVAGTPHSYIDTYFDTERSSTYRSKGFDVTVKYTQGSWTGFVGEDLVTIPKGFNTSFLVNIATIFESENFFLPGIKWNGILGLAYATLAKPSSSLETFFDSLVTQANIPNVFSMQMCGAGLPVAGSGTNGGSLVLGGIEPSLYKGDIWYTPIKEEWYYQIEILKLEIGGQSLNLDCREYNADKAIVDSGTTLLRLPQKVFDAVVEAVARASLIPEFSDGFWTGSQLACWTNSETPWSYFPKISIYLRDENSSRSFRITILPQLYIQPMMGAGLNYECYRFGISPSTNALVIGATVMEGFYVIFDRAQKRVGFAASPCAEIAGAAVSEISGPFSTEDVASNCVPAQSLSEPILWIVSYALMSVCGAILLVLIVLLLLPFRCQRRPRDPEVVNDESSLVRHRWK
Experimental: as §1

Sequence of Cathepsin D (P07339 65-162 limits assumed): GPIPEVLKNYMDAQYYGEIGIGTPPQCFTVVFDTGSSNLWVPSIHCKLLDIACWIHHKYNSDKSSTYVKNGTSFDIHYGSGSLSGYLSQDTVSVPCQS
Sequence of Cathepsin D (P07339 169-412 limits assumed): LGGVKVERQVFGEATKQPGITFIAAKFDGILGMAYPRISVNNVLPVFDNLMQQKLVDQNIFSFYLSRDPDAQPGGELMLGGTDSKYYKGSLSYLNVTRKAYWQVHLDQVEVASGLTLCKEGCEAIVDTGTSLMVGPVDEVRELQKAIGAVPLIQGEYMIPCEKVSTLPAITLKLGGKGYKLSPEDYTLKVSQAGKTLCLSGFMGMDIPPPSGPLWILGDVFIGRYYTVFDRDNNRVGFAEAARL

| Compound | IC50 [1] [µM] | IC50 [2] [µM] | IC50 [3] [µM] |
| --- | --- | --- | --- |
| C#C[C@H](C)Oc1cnc(C(=O)Nc2cc(F)c(F)c([C@@]3(C)N=C(N)S[C@@]4(COC)C[C@H]43)c2)c(C)n1 [US20160046618, Example 622] | 946 | 0.00492 | 0.225 |
| NC1=N[C@](CF)(c2cc(Nc3ncnc4cc(Cl)cnc34)ccc2F)[C@H]2C[C@@H]2S1 [US20160046618, Example 39] | 1220 | – | 0.0278 |
| C[C@]1(c2cc(NC(=O)c3ccc(Cl)cn3)cc(F)c2F)N=C(N)S[C@@]2(C(=O)O)C[C@H]21 [US20160046618, Example 899] | > 400 | 0.00889 | 0.00258 |
| C#C[C@H](C)Oc1cnc(C(=O)Nc2ccc(F)c([C@@]3(C)N=C(N)S[C@@]4(C(F)F)C[C@@H]34)c2)c(C)c1 [US20160046618, Example 648] | 196 | 0.0433 | 0.522 |
| C#CCOc1cnc(C(=O)Nc2ccc(F)c([C@@]3(C)N=C(N)S[C@@]4(CF)C[C@H]43)c2)cn1 [US20160046618, Example 822] | 150 | 0.000264 | 0.0147 |
| Cc1cc(C#N)cnc1C(=O)Nc1cc(F)c(F)c([C@@]2(CF)N=C(N)S[C@@]3(C(F)F)C[C@@H]23)c1 [US20160046618, Example 94] | 559 | – | < 0.00203 |
| NC1=N[C@](CF)(c2cc(Nc3nccc4nc(OCc5ncco5)cnc34)ccc2F)[C@@H]2C[C@]2(c2c[nH]nn2)S1 [US20160046618, Example 957] | 1260 | 0.000621 | 0.00538 |
| C=CC(C)Oc1cnc(C(=O)Nc2ccc(F)c([C@@]3(C)N=C(N)S[C@@]4(COC)C[C@H]43)c2)cn1 (stereo not given in full) [US20160046618, Example 1063] | > 400 | 0.037 | 0.555 |
| C#C[C@H](C)Oc1cnc(C(=O)Nc2cc(F)c(F)c([C@@]3(C)N=C(N)S[C@@]4(CF)C[C@H]43)c2)c(C)n1 [US20160046618, Example 616] | 905 | 0.00342 | 0.124 |
